Key:
Format in all cases: biochemical
Details in all cases: 100 μM
[1] = target: T1, human immunodeficiency virus type-1 (HIV-1) reverse transcriptase (Human immunodeficiency virus type 1 group M subtype B, UniProt P03366); assay: HIV-1 reverse transcriptase assay
T1 construct: HIV-1 reverse transcriptase (recombinant); purchased Worthington Biochemical Corp. (Freehold, NJ, USA)
Source text: (§1) Pol α was purified from calf thymus by immuno-affinity column chromatography, as described by Tamai et al.. Recombinant rat pol β was purified from E. coli JMpβ5, as described by Date et al.. The human pol γ catalytic gene was cloned into pFastBac. Histidine-tagged enzyme was expressed using the BAC-TO-BAC HT Baculovirus Expression System according to the supplier’s manual (Life Technologies, MD, USA) and purified using ProBoundresin (Invitrogen Japan, Tokyo, Japan). Human pols δ and ɛ were purified by nuclear fractionation of human peripheral blood cancer cells (Molt-4) using the second subunit of pols δ and ɛ-conjugated affinity column chromatography, respectively. A truncated form of human pol η (residues 1–511) tagged with His6 at its C-terminal was expressed in E. coli cells and purified as described by Kusumoto et al.. A recombinant mouse pol ι tagged with His6 at its C-terminal was expressed and purified by Ni-NTA column chromatography as described elsewhere (Masutani et al., in preparation). […]
The compounds were dissolved in distilled dimethyl sulfoxide (DMSO) at various concentrations and sonicated for 30 sec. […] Activity without the inhibitor was considered 100%, and the remaining activity at each concentration of the inhibitor was determined relative to this value. […]

calf primase of pol α = assay: Primase assay
Protocol: (§2) The activities of calf primase of pol α, human telomerase, T7 RNA polymerase, mouse IMP dehydrogenase, human DNA topoisomerases I and II, T4 polynucleotide kinase and bovine DNase I were measured in standard assays according to the manufacturer’s specifications, as described by Tamiya-Koizumi et al., Oda et al., Nakayama et al., Mizushina et al., Ishimaru et al., Soltis et al. and Lu et al., respectively.

T7 RNA polymerase = target: T2, T7 RNA polymerase (Escherichia phage T7, UniProt P00573); assay: T7 RNA polymerase assay
T2 construct: purchased Takara Bio (Tokyo, Japan)
Source text: as §1, with “al..” for “al.. A recombinant mouse pol ι tagged with His6 at its C-terminal was expressed and purified by Ni-NTA column chromatography as described elsewhere (Masutani et al., in preparation).”
as §2

T2 sequence (P00573 whole entry): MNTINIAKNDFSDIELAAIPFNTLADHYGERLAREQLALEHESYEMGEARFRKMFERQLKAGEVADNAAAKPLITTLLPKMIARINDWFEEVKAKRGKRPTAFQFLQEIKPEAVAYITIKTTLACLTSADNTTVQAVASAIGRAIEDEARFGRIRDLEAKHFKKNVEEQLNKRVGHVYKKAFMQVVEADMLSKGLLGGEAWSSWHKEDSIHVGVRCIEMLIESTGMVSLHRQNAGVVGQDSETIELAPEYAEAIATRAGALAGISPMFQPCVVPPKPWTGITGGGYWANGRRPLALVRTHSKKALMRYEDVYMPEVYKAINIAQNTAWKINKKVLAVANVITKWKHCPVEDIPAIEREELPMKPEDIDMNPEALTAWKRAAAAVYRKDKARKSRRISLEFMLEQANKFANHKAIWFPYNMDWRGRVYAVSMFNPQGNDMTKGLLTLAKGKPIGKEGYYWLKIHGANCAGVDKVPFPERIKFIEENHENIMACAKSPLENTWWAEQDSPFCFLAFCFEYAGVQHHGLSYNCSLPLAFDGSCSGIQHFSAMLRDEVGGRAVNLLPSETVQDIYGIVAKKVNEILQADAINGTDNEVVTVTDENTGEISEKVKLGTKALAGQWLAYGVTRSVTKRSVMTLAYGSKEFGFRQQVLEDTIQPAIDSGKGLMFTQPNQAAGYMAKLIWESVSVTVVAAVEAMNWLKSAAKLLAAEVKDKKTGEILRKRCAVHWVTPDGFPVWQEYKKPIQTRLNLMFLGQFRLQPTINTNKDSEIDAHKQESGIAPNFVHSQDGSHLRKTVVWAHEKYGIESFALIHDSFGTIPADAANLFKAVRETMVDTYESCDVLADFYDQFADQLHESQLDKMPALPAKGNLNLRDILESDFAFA

C/C=C/c1occ(C(=O)c2c(OC)cc(OC)cc2C(=O)OC)c(=O)c1OC [compound 1, 3-O-methylfunicone]
did not influence: effect on HIV-1 reverse transcriptase activity [1] | effect on calf primase of pol α activity (calf primase of pol α) | effect on T7 RNA polymerase activity (T7 RNA polymerase)

Reference: PMC2810227, “3-O-Methylfunicone, a Selective Inhibitor of Mammalian Y-Family DNA Polymerases from an Australian Sea Salt Fungal Strain” (Marine Drugs, 2009)
